Where two headings read alike, the source gives them in different places.
Key:
IL 7 = details: RNase A and S1 nuclease, compound 0, 0.1, 1, 10, 100 μM
Procedure: (§1) The binding site of 2 was determined by enzymatic probing of IL 7 and R4 in the presence or absence of 2 with RNase A and S1 nuclease.
(§2) The binding site(s) of 2 was determined using a nuclease protection assay. For RNase A mapping experiments, radiolabeled oligonucleotide was annealed as described above. After slow cooling, serially diluted concentrations of 2 were added, and the resulting solution was allowed to equilibrate for 30 min at RT. Approximately 6 μunits of RNase A were added, and the reaction was allowed to proceed for 10 min. The reaction was quenched by addition of an equal volume of stop buffer, and the products were separated on a denaturing 17% polyacrylamide gel.
(§3) For S1 nuclease mapping experiments, the radiolabeled oligonucleotide was annealed as described except the buffer used was 50 mM sodium acetate (pH 4.5), 280 mM NaCl, and 4.5 mM ZnSO4. The solution was allowed to equilibrate for 30 min at RT after the addition of serially diluted concentrations of 2, and then 10 units of S1 were added. The reaction was quenched after 10 min at RT, and the products were separated on a denaturing 17% polyacrylamide gel.

hairpin cassette R4 = details: RNase A and S1 nuclease, compound 0, 0.1, 1, 10, 100 μM
Procedure: as §1, §2, §3

IL 16 = details: in presence of 2
Procedure: as §1

IL 1 = details: in presence of 2
Procedure: as §1

[1] = target: pool of RNAs harvested from position 1+; assay: Fluorescence-based direct binding assay with 21-FL; details: higher ligand loading position 1+
[2] = target: pool of RNAs harvested from position 2+; assay: Fluorescence-based direct binding assay with 21-FL; details: lower ligand loading position 2+
[3] = target: RNA internal loop library 22; assay: Fluorescence-based direct binding assay with 21-FL; details: entire library
[4] = target: chase oligonucleotide 23 (stem mimic duplex); assay: Fluorescence-based direct binding assay with 21-FL; details: no change in fluorescence intensity up to 5 μM
[5] = target: chase oligonucleotide 24 (GAAA hairpin mimic); assay: Fluorescence-based direct binding assay with 21-FL; details: no change in fluorescence intensity up to 5 μM
[6] = target: DNA chase oligonucleotides 25+26; assay: Fluorescence-based direct binding assay with 21-FL; details: no change in fluorescence intensity up to 5 μM
empty cassette RNA 27 = assay: Fluorescence-based direct binding assay with 21-FL
tRNAphe = assay: Fluorescence-based direct binding assay with 21-FL
IL 34 = assay: Competitive binding assay against 21-FL; details: competition with 10 nM 21-FL, 75 nM IL 34
Procedure: (§4) To determine if selected loops have aminoglycoside preferences, the binding of five aminoglycosides, 21, kanamycin A, kanamycin B, tobramycin, and neamine (FIG. 7) to the pool of RNAs from spot 2+ (FIG. 10C) was probed using a competitive binding assay. […] We also tested a single RNA sequence identified to bind 21, IL 34, in the same manner.
(§5) A solution containing 75 nM IL 34 was refolded in 1× hybridization buffer+40 μg/mL BSA at 60° C. for 5 min. After slow cooling on the benchtop, 21-FL was added to a final concentration of 10 nM. The competing, unlabeled aminoglycoside was then added, and the resulting solution was serially diluted into 1× hybridization buffer+40 μg/mL BSA+10 nM 21-FL containing 75 nM IL 34. The solutions were equilibrated for 30 min at RT, and the fluorescence intensities were measured on a Bio-Tek HT fluorescence plate reader.

[7] = target: pool of RNAs from spot 2+; assay: Competitive binding assay against 21-FL; details: for Kd: competition with 10 nM 21-FL
Procedure: as §4, §5

[8] = tested on: RNA internal loop library 22; details: chase oligonucleotides 23-26 in excess
[9] = target: 1×1 CC internal loop derived from the untranslated region in thymidylate synthase mRNA; details: 1 mM MgCl2 and CaCl2, 150 mM NaCl, 5 mM KCl, 20 mM HEPES (pH 7.5); read-out: dissociation constant; cited from earlier work
[10] = tested on: immobilized 6′-N-5-hexynoate kanamycin A (2) / radiolabeled IL 7; assay: Array-based competitive binding assay: competitor RNA against trace 32P-labeled IL 7 on immobilized 2; details: for IC50: read-out: IC50 (concentration of competitor that inhibited 50% of the binding of radioactively labeled IL 7), competitor RNA, immobilized 2 in microwells, 30 min at RT
Source text: Typically microarray experiments can be used to probe the binding of a variety of small molecules to a single or a few analytes at once. In order to increase the number of conditions that can be probed on a single array, we affixed a silicon gasket that created 50 microwells on the surface of each chip (FIG. 5A). These microwells converted the array into a miniaturized 50-well plate that is easily functionalized to display kanamycin. Compound 2 was immobilized in each microwell at a constant concentration. Binding experiments were completed by delivering 10 μL of a solution containing serially diluted concentrations of the internal loop of interest and trace 5′end ^32P labeled IL 7 into each microwell. Dose response curves were constructed and fit to determine the concentration of competitor that inhibited 50% of the binding of the radioactively labeled RNA (FIG. 3, FIG. 5B, and FIG. 5C). FIG. 5B is a representative autoradiogram for binding selected RNAs relative to binding of control oligonucleotides R2, R3, D1 and D2, and R4, the cassette without an internal loop.
In order to determine which concentration of 2 was optimal for competitive binding assays, serially diluted 2 was applied to the chip surface and allowed to react for 2 h at RT inside the microwell of a silicon gasket (GRACE Biolabs, CWCS 50R-1.0, C-24780) (FIG. 5A). Each of the wells was washed twice with water, and the slide was dried in air. The 5′ end ^32P radiolabeled IL 7 was annealed in 1×HB+40 μg/mL of BSA at 60° C. for 5 min and allowed to slow cool on the benchtop for 10 min. It is important to note that the hybridization buffer contains 1 mM EDTA, or 50 equivalents compared to the amount of Cu^2+ used for the click reaction. […] The annealed RNA oligonucleotide was hybridized with the chip surface for 30 min at RT. […]
IC50's were determined by incubating serially diluted competitor RNA and trace radiolabeled IL 7 in microwells formed using a silicon gasket. […] The data were quantified using Bio-Rad's QuantityOne software, and the IC50's were determined using SigmaPlot's four-parameter logistical curve fit.

[11] = tested on: RNA 3×3 internal loop library (R1); assay: Resin-based selection of RNA internal loops with immobilized kanamycin A; type: binding; details: based on initial radioactivity eluted with kanamycin A; about 150 members
Procedure: Selections were completed by incubating a solution that contained 5′ end ^32P-labeled R1 in buffer with resin-immobilized kanamycin A. In addition to R1, a variety of other oligonucleotides were added to the incubation solution (R2-R4, D1, D2). […] The small number may be due to the manner in which the ligand was immobilized onto the resin (impairs the 6′ amino group from forming stabilizing contacts with RNA).
Each of the oligonucleotides was refolded separately in Hybridization Buffer (“HB”) containing 8 mM […] pH 7.0, 1 mM EDTA, and 185 mM NaCl by heating for 5 min at 65° C. and then cooling to RT on the benchtop. Oligonucleotides were then transferred to 4° C. and mixed together. Before the oligonucleotides were hybridized with the resin, 200 μg of BSA was added to the samples. Each selection experiment was completed with 10 picomoles of 5′-end labeled R1 and 20-fold higher concentration of each control oligonucleotide (R2-R4, D1, D2) over the concentration of R1.
A 100 μL aliquot of resin slurry (10 μL of resin) was placed into a 2.5 mL BioRad column and washed 3× with 1 mL of 4° C. HB. […] At this stage, liquid scintillation counting was used to ensure that only background radioactivity was being eluted from the column. […]

[12] = tested on: oligonucleotide mimic of the bacterial rRNA A-site; details: 6′ NH2 acetylated; cited from earlier work
[13] = listed as 6′ hexynoate kanamycin A

## C#CCCCC(=O)NC[C@@H]1O[C@@H](O[C@H]2[C@H](O)[C@@H](O[C@@H]3O[C@@H](CO)[C@H](O)[C@@H](N)[C@@H]3O)[C@H](N)C[C@@H]2N)[C@@H](O)[C@H](O)[C@H]1O [Compound 21, 6′-N-5-hexynoate kanamycin A]
IL 7; listed as 2
  nucleotides protected from cleavage: only nucleotides in the loop and the surrounding base pairs in IL 7 are protected from cleavage
IL 7; [13]
  nucleotides protected from cleavage: occurs only in the randomized regions
Hairpin cassette R4; listed as 2
  nucleotides protected from cleavage: No nucleotides in the cassette R4 are protected
Hairpin cassette R4; [13]
  nucleotides protected from cleavage: no nucleotides are protected from modification
IL 16
  DEPC modification of loop nucleotides: decreased modification
IL 1
  DEPC modification of loop nucleotides: decreased modification
[1]
  Kd: 0.065 µM
[2]
  Kd: 0.011 µM
[3]
  Kd: 0.28 µM
[4]
  Kd: > 5 µM
[5]
  Kd: > 5 µM
[6]
  Kd: > 5 µM
Empty cassette RNA 27
  Kd: 1.3 µM
tRNAphe
  Kd: 0.7 µM
IL 34; read-out: Kd
  Kd: 0.007 µM
[7]
  Kd: 0.012 µM
[8]
  binding of library members on the array: concentration-dependent binding

## NC[C@H]1O[C@H](O[C@H]2[C@H](O)[C@@H](O[C@H]3O[C@H](CO)[C@@H](O)[C@H](N)[C@H]3O)[C@H](N)C[C@@H]2N)[C@H](N)[C@@H](O)[C@@H]1O [kanamycin B]
IL 34; read-out: Kd
  Kd: 0.005 µM
[7]
  Kd: 0.012 µM
[9]
  Kd: 1.1 µM

## NC[C@H]1O[C@H](O[C@H]2[C@H](O)[C@@H](O)[C@H](N)C[C@@H]2N)[C@H](N)[C@@H](O)[C@@H]1O [neamine]
IL 34
  Kd: much weaker
[7]
  Kd: > 0.5 µM

## IL 2: selected RNA internal loop (SEQ ID NO:13), 5′UU/3′UC 2×2 loop, one closing A-U pair in different orientation (GGGAGAGGGUUUAAUAUCUACGAAAGUAUUUAUUGGAUCCGCAAGG; listed as RNA, chemistry not given here)
[10]
  IC50: 0.0033 µM

## NC[C@H]1O[C@H](O[C@H]2[C@H](O)[C@@H](O[C@H]3O[C@H](CO)[C@@H](O)[C@H](N)[C@H]3O)[C@H](N)C[C@@H]2N)[C@H](O)[C@@H](O)[C@@H]1O [kanamycin A]
[11]
  percentage of the 4096-member library bound to immobilized ligand: ~4%
IL 34; read-out: Kd
  Kd: 0.005 µM
[7]
  Kd: 0.009 µM

## IL 1: selected RNA internal loop (SEQ ID NO:12), 5′UU/3′UC 2×2 loop closed by A-U pairs (GGGAGAGGGUUUAAUUUUUACGAAAGUAACUAUUGGAUCCGCAAGG; listed as RNA, chemistry not given here)
[10]
  IC50: 0.0022 µM

## CC(=O)NCC1OC(OC2C(N)CC(N)C(OC3OC(CO)C(O)C(N)C3O)C2O)C(O)C(O)C1O (stereo not drawn) [6′ acetylated kanamycin A]
[12]
  reduction in binding relative to the parent aminoglycoside: several orders of magnitude

## NC[C@H]1O[C@H](O[C@H]2[C@H](O)[C@@H](O[C@H]3O[C@H](CO)[C@@H](O)[C@H](N)[C@H]3O)[C@H](N)C[C@@H]2N)[C@H](N)C[C@@H]1O [tobramycin]
IL 34
  Kd: much weaker
[7]
  Kd: 0.085 µM
[7]; relative to 21, kanamycin A and kanamycin B
  fold weaker binding: approximately 9 fold
[9]
  Kd: 0.87 µM

## IL 17: selected RNA internal loop (SEQ ID NO:14 series; SEQ ID NO:28), U replaced with C and closing pair GC (GGGAGAGGGUUUAAUCUUUACGAAAGUACCGAUUGGAUCCGCAAGG; listed as RNA, chemistry not given here)
[10]
  fold weaker binding relative to IL 1 and IL 2: ~10 fold

Source: US9719191B2, “Methods for identifying ligands that target nucleic acid molecules and nucleic acid structural motifs” (The Research Foundation for The State University of New York, priority 2006, dated 2017)
